Earlier results in US4431807A, “4-Methyl-5-(unsubstituted and substituted phenoxy)-6-methoxy-8-(aminoalkylamino)quinolines” (priority 1981, dated 1984).
Like-named read-outs stand apart in the source and are kept apart here.

Key:
[1] = test system: Plasmodium berghei; conditions: cited from earlier work; for Δ MST / Cures: 5 mice, Table I
[2] = test system: Plasmodium cynomolgi; conditions: prior art compounds; cited from earlier work

COc1cc(NC(C)CCCN)c2ncccc2c1Oc1ccc(F)cc1 (stereo not shown) [5-(4-Fluorophenoxy)Primaquine, 5-(4-fluorophenoxy)primaquine]
Δ MST ([1]; 80 mg/kg): 7.0 days | Δ MST ([1]; 160 mg/kg): 9 days | Cures ([1]; 320 mg/kg): 5C | Cures ([1]; 640 mg/kg): 5C | Suppressive activity ([1]; 320 and 640 mg/kg): active and non-toxic | Suppressive activity relative to mefloquine ([1]; prior art compound): distinctly inferior | Radical curative activity relative to primaquine [2]: no more active than primaquine
